Test results as given in paper PMC13201543 (Communications Biology, 2026).
Entries after “also recorded” stand apart in the source; their conditions may differ.

What was measured:
[1] = tested on: A*24; assay: Surface plasmon resonance, immobilized A*24; type: binding, human
[2] = tested on: A*33; assay: Surface plasmon resonance, immobilized A*33; type: binding, human; conditions: for SPR binding to A*33 (in words): Biacore T200, recombinant A*33
[3] = tested on: C*07; assay: Surface plasmon resonance, immobilized C*07; type: binding, human; conditions: Biacore T200, recombinant C*07
[4] = target: recombinant C-terminal His-tag HLA-A*33 (human); assay: SPR
[5] = target: recombinant His-tag HLA-C*07 (human); assay: SPR
[6] = target: recombinant C-terminal His-tag HLA-A*24 (human); assay: SPR

In the case of SMFWPCLLR [SAG2C], the “SPR binding to A*24 (in words)” value ([1]; Biacore T200, immobilized A*24, different concentrations of peptide) is reported as “relatively weaker binding”, the “SPR binding response, A*24 compared with A*33” value ([1]; SAG2C 100 μM (Fig. 6C.iii)) is reported as “Distinct decrease in SPR binding response” and the “SPR binding to A*33 (in words)” value [2] is reported as “higher binding affinity; also recorded: strong binding”.

With GNNQIDSTLKDLVEELSK [MSP3] the “binding to C*07 (in words)” value [3] was “strong binding affinity”, the “SPR binding to A*33 (in words)” value [2] was “relatively weaker binding” and the “SPR binding response, A*33 compared with C*07” value ([2]; MSP3 100 μM (Fig. 8C.iii)) was “Distinct decrease in SPR binding response”.

GNNQIDSTLKDLVEELSK [Plasmodium antigenic peptide MSP3] gave an SPR response at 200 uM [4] of 12 RU and an SPR response at 200 uM [5] of 60 RU.

In the case of SMFWPCLLR [Toxoplasma antigenic peptide SAG2C, wild type], the SPR response at 200 uM [4] is reported as 150 RU and the SPR response at 200 uM [6] is reported as 15 RU.
